Each structure is given as a SMILES string.

From patent US8202527B2, “Method of combating turf pests with a combination of imidacloprid and bifenthrin” (priority 2005, dated 2012) come the findings set out here.

Experiment [1] relates to southern chinch bugs (pyrethroid-resistant chinch bugs). Nature of the experiment: Florida Study (a): St. Augustine grass lawns, chinch bug counts. The experiment is classed as in vivo, Blissus hirsutus. The note with it: for number of southern chinch bugs per ft^2 (per 930 cm^2): bifenthrin 0.2 lb/A, imidacloprid 0.25 lb/A where applied. The procedure: (§1) The following tests were performed to show the efficacy of combinations containing imidacloprid and bifenthrin against pyrethroid-resistant chinch bugs (Blissus hirsutus).
St. Augustine grass lawns, were treated in the summer of 2005 with either bifenthrin at 0.2 lb/A (220 g/ha) or with one of two combination products containing imidacloprid at 0.25 lb/A (280 g/ha) plus bifenthrin at 0.2 lb/A (220 g/ha). At the time of application, populations of chinch bugs were very low. The grass was irrigated and mowed according to local agronomic practices. Because of poor efficacy, imidacloprid is not used commercially for this application and thus was not tested alone in this study.
The numbers of chinch bugs in the lawns were counted at 40 days after application (DAT). After this time period, lawns treated with the combination products containing imidacloprid and bifenthrin had no chinch bugs.

The test system of experiment [2] is pyrethroid-resistant chinch bugs (southern chinch bugs). The experiment can be described thus: Florida Study (b): seven St. Augustine grass lawns, chinch bug counts. Format: in vivo, Blissus hirsutus. The procedure: as §1
(§2) Seven St. Augustine grass lawns were treated several times in the summer of 2005 with bifenthrin at 0.2 lb/A (220 g/ha), the highest registered dose of the most widely-used product used for control of southern chinch bugs in Florida.
In October of 2005 the lawns were sampled, and the average population of chinch bugs in each lawn was 571 bugs/ft^2 (i.e., 571 bugs per about 930 cm^2), an exceedingly heavy population. After this sampling was done, the seven lawns were treated with a soluble concentrate formulation of a product containing imidacloprid plus bifenthrin at 0.25 lb/A plus 0.2 lb/A (280 g/ha plus 220 g/ha). Six days after treatment, the lawns were again sampled, at which time an average of 6 chinch bugs/ft^2 (i.e., 6 bugs per about 930 cm^2) was observed.

The test system of experiment [3] is chinch bugs collected from Florida Study (b) lawns. Nature of the experiment: University of Florida laboratory bioassay of bifenthrin susceptibility. Format: in vivo, Blissus hirsutus. The note with it: bugs sampled from the treated lawns. The procedure:
as §2

The test system of experiment [4] is Japanese beetle (Popillia japonica). Nature of the experiment: Japanese beetle choice test on treated and untreated turfgrass cores. The note with it: 4 days after infestation. The experiment is classed as in vivo. The procedure:
The following tests were performed to show the efficacy of combinations containing imidacloprid and bifenthrin against Japanese beetle eggs (Popillia japonica).
Turfgrass cores (6.4 cm in diameter, 7 cm deep) were set into tight-fitting paper cups. Four cores were arranged in an ABAB layout in cylindrical plastic cages (60 cm in diameter, 50 cm high) cages with lids that prevented any insects inside from escaping. The cages were sufficiently large to allow adult Japanese beetles to fly and/or crawl unimpeded from one core to another, thereby providing an experimental design that was an accurate measure of which type of turf (untreated or insecticide treated) the adult beetles preferred.
Tests were carried out using the following compositions compared to untreated controls: • Composition (1): Imidacloprid at 0.25 lb/A (about 280 g/ha) plus bifenthrin at 0.2 lb/A (about 220 g/ha) • Composition (2): Imidacloprid at 0.3 lb/A (about 340 g/ha)
Eight replicates of each paired comparison were tested. Gravid adult female Japanese beetles were collected from the field and eight females were placed in each cage. Tests were carried out at 25° C. and with 14 h photophase. One day after infestation, a piece of apple was added to the cage as a food/water source.
At 4 days after infestation, the numbers of adult beetles found in treated and untreated cores were counted. […]

`Cc1c(COC(=O)[C@@H]2[C@H](/C=C(\Cl)C(F)(F)F)C2(C)C)cccc1-c1ccccc1` (racemic) [Bifenthrin, 2-methylbiphenyl-3-ylmethyl (Z)-(1RS,3RS)-3-(2-chloro-3,3,3-trifluoroprop-1-enyl)-2,2-dimethylcyclopropane-carboxylate]: the “number of southern chinch bugs per ft^2 (per 930 cm^2)” value in experiment [1] (0 DAT) was 0 per ft^2 (per 930 cm^2); in experiment [1] (40 DAT) it was 250 per ft^2 (per 930 cm^2). In addition, the “chinch bugs in the lawns (in words)” value in experiment [1] (40 days after application (DAT)) is listed as “economically damaging levels”. Also, the “control of southern chinch bugs (in words)” value in experiment [1] (overall conclusion from the table data) is recorded as “not effective”; in experiment [2] (lawns treated several times in summer 2005 at 0.2 lb/A (220 g/ha)), “exceedingly poor”. In experiment [2] (October 2005, after several bifenthrin treatments at 0.2 lb/A, before the combination treatment), the “average population of chinch bugs in each lawn” value was 571 bugs/ft^2. The “times less susceptible than a normal pyrethroid-susceptible population” value in experiment [3] is listed as 47 times.

In the case of `O=[N+]([O-])NC1=NCCN1Cc1ccc(Cl)nc1` [Imidacloprid], the “number of adult beetles found in treated cores” value in experiment [4] (choice against untreated cores, imidacloprid 0.25 lb/A plus bifenthrin 0.2 lb/A, or imidacloprid alone 0.3 lb/A, 25° C.) was found to be 3.8 beetles. Besides, the “beetle preference between treated and untreated turf (in words)” value in experiment [4] (paired choice comparison) is “the beetles show preference”.
